Reference: patent US20260132165A1, “MODIFIED NUCLEOSIDE ANALOGUE AND USE THEREOF, AND NUCLEOSIDE ANALOGUE-CONTAINING DOUBLE-STRANDED OLIGONUCLEOTIDE AND USE THEREOF” (RIGERNA THERAPEUTICS (BEIJING) CO., LTD., priority 2023, published 2026)
Where “and” joins values, the source holds several entries; their conditions need not be identical. Equal values may be shown once.

Experiments:
SOD1 = test: Test Example 2: inhibitory activity of NM031 conjugated siRNA on SOD1 by intrathecal administration to mice; type: in vivo, C57BL/6j mice; conditions: D9
Method: 6-8 Week-old C57BL/6j mice were randomly grouped into 4 groups by body weight. PBS group was dosed with siRNA-free PBS solution, RX899001 group was dosed with siRNA compound RX899001 without vector conjugation, RZ899001 group was dosed with siRNA RZ899001 (the sense strand with the Uhd conjugation at Position 4) prepared in Example 1, and RZ899008 was dosed with siRNA RZ899008 (the sense strand with the NM031 conjugation at Position 4) prepared in Example 1. Mices in each group were anesthetized with isoflurane. After anesthetization, lumbar region thereof was sprayed wet with 75% disinfecting alcohol. 10 μL (concentration […]) of siRNA drug containing PBS solvent was sucked with an insulin injection needle, the mouse lumbar region was pinched with the left-hand index finger and thumb, patella crest was propped against, and needle was held by the right hand. The needle was bent by forceps in advance, wherein the needle was first bent in the middle by 80° to 90°, then a front half part of the needle was bent in half, and the whole needle was bent in an are shape of about 60° to 90°. Mouse abdominal region was padded with an article with a thickness of about 2 cm. The needle was inserted from a joint of lumbar spines L5 and L6 of mice, and when inserting the needle, the hand was slightly inclined forwards to insert the needle. […] After completion of the injection, the needle was slowly withdrawn at uniform velocity. The administration dose to each mouse in RX899001 group, RZ899001 group and RZ899008 group was 800 μg, a total volume injected was 10 μL, and the PBS group was administered with the same volume of siRNA-free PBS solution. After the animals woke up, the animals were returned back to the animal feeding room and further fed. The day of administration was recorded as first day (D1), and the mice were sacrificed on ninth day (D9). Lumbar spine, thoracic spine and cerebellum were respectively taken and stored in the RNAlater.
RNA extraction: an appropriate amount of lumbar spine, thoracic spine and cerebellum samples were respectively taken out from the RNAlater, and smashed for 60 s in Tissuelyser type II full-automatic tissue homogenizer, and total RNAs of various tissue samples were extracted using the full-automatic nucleic acid extraction instrument and the nucleic acid extraction kit from Zhejiang Hanwei Science and Technology Co. Ltd. according to methods described in instructions. Reverse transcription reaction: 1 μg of the extracted total RNAs of various tissue samples were respectively taken, and configured into 20 μL of reverse transcription system according to a method described in kit instructions by using a reverse transcription kit (Reverse Transcription System, A3500) from Promega Corporation and selecting Oligo (dT)15 reverse transcription primers, and the reverse transcription reaction was completed. After the reaction was ended, 80 μL of RNase-Free water was added into the reverse transcription system to provide cDNA solution for Real-time PCR detection.
Real-time PCR detection: 20 μL of Real-time PCR reaction system per PCR detection well was configured according to a method described in kit instructions using SYBR™ Select Master Mix (Catalog number: 4472908) reagent from ABI company. Each detection system contained 5 μL of cDNA template obtained from the above reverse transcription reaction, 10 μL of SYBR™ Select Master Mix, 0.5 μL of 10 μM upstream primers, 0.5 μL of 10 μM downstream primers (see TABLE 5 for primer information), and 4 μL of RNase-Free H2O. The configured reaction system was subjected to Real-time PCR amplification on ABI StepOnePlus PCR instrument by a three-step method, wherein an amplification procedure was pre-denaturation at 95° C. for 10 min, then denaturation at 95° C. for 30 s, annealing at 60° C. for 30 s, and extension at 72° C. for 30 s; and processes of denaturation, annealing, and extension were repeated for 40 cycles. […]

[1] = tested on: target gene Superoxide Dismutase 1 (SOD1); test: Test Example 1: inhibitory activity of NM031 conjugated siRNA on SOD1 by lateral ventricular administration to mice (real-time PCR, ΔΔCt); type: in vivo, C57BL/6j mice; conditions: lateral ventricle, 200 μg per mouse, D5
Excerpt: In the context of the present disclosure, unless otherwise stated, Real-time PCR detection data in in vivo activity experiments involved in the present disclosure are all used for relative quantitative calculation of gene mRNA of interest in various test groups by a ΔΔCt method, and a calculation method is summarized as follows:
Taking the control group as reference, expression level of the gene mRNA of interest in the test group is normalized, and remaining expression level of the gene mRNA of interest in the […] is defined as 100%.
6-8 Week-old C57BL/6j mice were randomly grouped by body weight, 5 per group, 2 groups in total, i.e., PBS group (dosed with siRNA-free PBS solution) and RZ899008 group (dosed with siRNA RZ899008 (the sense strand with the NM031 conjugation at Position 4) prepared in Example 1). Mice in each group were anaesthetized by intraperitoneal injection of 5% chloral hydrate, and were immobilized with the cerebral stereotaxic apparatus after being anaesthetized. Head skin was cut, positioning coordinates of right lateral ventricle were found with the stereotaxic apparatus and position was marked on surface of skull, wherein the positioning coordinates of the lateral ventricle were as follows: in coordinate axes with Bregma point as an origin, ML (mediolateral, left and right of middle raphe, i.e., X-axis) value=1.2 mm, and AP (anteroposterior, bregma anterior and posterior, i.e., Y-axis) value=−0.58 mm, and DV (dorsoventral, down skull (cerebral dura mater) plane, i.e., Z-axis) value=2.2 mm. A dental electric drill was used to drill in the skull above a position of interest, and then sucked drug was injected into the lateral ventricle by a micro-dosing pump. An administration dose to each mouse in the RZ899008 group was 200 μg (dose being measured as siRNA, concentration of siRNA being 20 μg/μL, PBS buffer as a solvent), and a total injection volume was […]. PBS group was administered with the same volume of siRNA-free PBS solution. […] The day of administration was recorded as first day (D1), and the mice were sacrificed on the fifth day (D5). […]

RZ899008: siRNA, the sense strand with the NM031 conjugation at Position 4; SEQ ID NO: 3 / 2 (sense UUUNAAUCCUCACUCUAAA; antisense UUUAGAGUGAGGAUUAAAAUG; NM031 conjugate at sense position 4; modified_base 1..2 OTHER; 2'-methoxy and 5'-thiophosphate modified nucleotides; modified_base 3 OTHER; 2'-methoxy modified nucleotide; modified_base 4 OTHER; n is the synthetic nucleotide analog NM031 as described in the disclosure (e.g., NM031-1 ((1-[(2R,3R,4S,5R)-5-{[bis(4-methoxyphenyl)(phenyl)methoxy]methyl}-3,4-dihydroxyoxolan-2-yl]-3H-pyrimidin-2,4-dione)).; modified_base 5..6 OTHER; 2'-meth; modified_base 1 OTHER; 2'-methoxy and 5'-thiophosphate modified nucleotide; modified_base 2 OTHER; 2'-fluoro and 5'-thiophosphate modified nucleotide; …)
Cerebellum Mean value of inhibition rate % (SOD1; cerebellum, intrathecal, 800 μg per mouse): 67.72%
activity compared with control molecule RZ899001 and molecule RX899001 without vector conjugation (SOD1; lumbar spine, thoracic spine and cerebellum, intrathecal 800 μg per mouse): superior
Lumbar spine Mean value of inhibition rate % (SOD1; lumbar spine, intrathecal, 800 μg per mouse): 80.09% and 78.99%
Thoracic spine Mean value of inhibition rate % (SOD1; thoracic spine, intrathecal, 800 μg per mouse): 78.99% and 80.09%
Hippocampus Mean value of inhibition rate % ([1]; administration-side hippocampus): 82.94%
Parietal cortex Mean value of inhibition rate % ([1]; administration-side parietal cortex): 73.57%
Cerebellum Mean value of inhibition rate % ([1]; cerebellum): 40.08%
